Here are results for 2 compounds from patent US11051515B2, “3-acyl-benzamides and their use as herbicides” (Bayer Aktiengesellschaft, priority 2017, dated 2021).

The test system of test [1] is PHBPU. Nature of the test: Post-emergence action against PHBPU. Type of test: in vivo, Pharbitis purpurea. As to conditions: post-emergence, dosage 80 g/ha. The gist of the method:
(§1)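 Weeds grown in sandy loam in greenhouse, treated at one-leaf stage (2–3 weeks after sowing) with WP or EC formulations sprayed as aqueous suspension/emulsion at 600 to […] water with 0.2% wetting agent. Visual rating after about 3 weeks versus untreated controls, as % herbicidal action (100% = plants dead, 0% = like control).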

Test [2] has as its system STEME. Put plainly: Post-emergence action against STEME. It counts as in vivo, Stellaria media. As to conditions: post-emergence, dosage 80 g/ha. The gist of the method:
as §1

Test [3] relates to ECHCG. Nature of the test: Post-emergence action against ECHCG. It counts as in vivo, Echinochloa crus-galli. As to conditions: post-emergence, dosage 80 g/ha, visual assessment about 3 weeks after treatment vs untreated controls. The gist of the method:
as §1

In test [4] the test system is VIOTR. Nature of the test: Post-emergence action against VIOTR. Type of test: in vivo, Viola tricolor. As to conditions: post-emergence, dosage 80 g/ha. The gist of the method:
as §1

For test [5], the system named is PHBPU. Nature of the test: Pre-emergence action against PHBPU. It counts as in vivo, Pharbitis purpurea. As to conditions: Dosage 320 g/ha, pre-emergence. The method in brief:
(§2)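 Seeds sown in sandy loam in wood-fiber pots and covered with soil. Greenhouse growth; visual damage scored after 3 weeks versus untreated controls (100% = dead, 0% = like control).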

Test [6] concerns ABUTH. Nature of the test: Post-emergence action against ABUTH. Type of test: in vivo, Abutilon theophrasti. As to conditions: post-emergence, dosage 80 g/ha, visual assessment about 3 weeks after treatment vs untreated controls. The method in brief:
as §1

Test [7] has as its system VERPE. Nature of the test: Pre-emergence action against VERPE. Type of test: in vivo, Veronica persica. As to conditions: Dosage 320 g/ha, pre-emergence. The method in brief:
as §2

Test [8] has as its system VERPE. Put plainly: Post-emergence action against VERPE. Type of test: in vivo, Veronica persica. As to conditions: dosage 80 g/ha. The method in brief:
as §1

The test system of test [9] is AMARE. Put plainly: Post-emergence action against AMARE. As to conditions: post-emergence, dosage 80 g/ha, visual assessment about 3 weeks after treatment vs untreated controls. Type of test: in vivo, Amaranthus retroflexus. The method in brief: as §1
The test system of test [10] is STEME. Nature of the test: Pre-emergence action against STEME. As to conditions: Dosage 320 g/ha, pre-emergence. Type of test: in vivo, Stellaria media. The gist of the method:
as §2

For test [11], the system named is CYPES. Nature of the test: Post-emergence action against CYPES. Type of test: in vivo, Cyperus esculentus. As to conditions: post-emergence, dosage 80 g/ha, visual assessment about 3 weeks after treatment vs untreated controls. The method in brief:
as §1

Test [12] concerns SETVI. Put plainly: Pre-emergence action against SETVI. Type of test: in vivo, Setaria viridis. As to conditions: pre-emergence, dosage 320 g/ha, scored visually after 3 weeks vs untreated controls. The gist of the method: as §2
Test [13] has as its system ALOMY. Nature of the test: Pre-emergence action against ALOMY. It counts as in vivo, Alopecurus myosuroides. As to conditions: dosage 320 g/ha; pre-emergence; scored visually after 3 weeks vs untreated controls; 100% = plants have died, 0% = like control plants. The method in brief:
as §2

Test [14] has as its system MATIN. Put plainly: Pre-emergence action against MATIN. It counts as in vivo, Matricaria inodora. As to conditions: Dosage 320 g/ha, pre-emergence. The method in brief: as §2
In test [15] the test system is AMARE. Nature of the test: Pre-emergence action against AMARE. It counts as in vivo, Amaranthus retroflexus. As to conditions: pre-emergence, dosage 320 g/ha, scored visually after 3 weeks vs untreated controls. The gist of the method:
as §2

The subject of test [16] is CYPES. Put plainly: Pre-emergence action against CYPES. It counts as in vivo, Cyperus esculentus. As to conditions: pre-emergence, dosage 320 g/ha, scored visually after 3 weeks vs untreated controls. The method in brief:
as §2

Test [17] concerns SETVI. Nature of the test: Post-emergence action against SETVI. As to conditions: post-emergence, dosage 80 g/ha, visual assessment about 3 weeks after treatment vs untreated controls. It counts as in vivo, Setaria viridis. The method in brief:
as §1

The subject of test [18] is AVEFA. Put plainly: Pre-emergence action against AVEFA. Type of test: in vivo, Avena fatua. As to conditions: dosage 320 g/ha, scored visually after 3 weeks vs untreated controls. The method in brief: as §2
Test [19] has as its system VIOTR. Nature of the test: Pre-emergence action against VIOTR. It counts as in vivo, Viola tricolor. As to conditions: Dosage 320 g/ha, pre-emergence. The gist of the method:
as §2

Test [20] deals with MATIN. Put plainly: Post-emergence action against MATIN. Type of test: in vivo, Matricaria inodora. As to conditions: post-emergence, dosage 80 g/ha, visual assessment about 3 weeks after treatment vs untreated controls. The gist of the method: as §1
Test [21] relates to ABUTH. Nature of the test: Pre-emergence action against ABUTH. It counts as in vivo, Abutilon theophrasti. As to conditions: pre-emergence, dosage 320 g/ha, scored visually after 3 weeks vs untreated controls. The method in brief:
as §2

For test [22], the system named is ECHCG. Nature of the test: Pre-emergence action against ECHCG. Type of test: in vivo, Echinochloa crus-galli. As to conditions: pre-emergence, dosage 320 g/ha, scored visually after 3 weeks vs untreated controls. The method in brief:
as §2

Test [23] has as its system POLCO. Put plainly: Post-emergence action against POLCO. Type of test: in vivo, Polygonum convolvulus. As to conditions: post-emergence, dosage 80 g/ha. The protocol:
Seeds of monocotyledonous and dicotyledonous weed and crop plants are laid out in sandy loam soil in wood-fiber pots, covered with soil and cultivated in a greenhouse under good growth conditions. 2 to 3 weeks after sowing, the test plants are treated at the one-leaf stage. The compounds of the invention, formulated in the form of wettable powders (WP) or as emulsion concentrates (EC), are then sprayed onto the green parts of the plants in the form of an aqueous suspension or emulsion at a water application rate equating to […], with addition of 0.2% wetting agent. After the test plants have been left to stand in the greenhouse under optimal growth conditions for about 3 weeks, the action of the preparations is assessed visually in comparison to untreated controls (herbicidal action in percent (%): 100% activity=the plants have died, 0% activity=like control plants). […] At the same time, inventive compounds leave Gramineae crops such as barley, wheat, rye, millet/Sorghum, corn or rice virtually undamaged when applied post-emergence, even at high active ingredient dosages. In addition, some substances are also harmless to dicotyledonous crops such as soya, cotton, oilseed rape, sugar beet or potatoes. Some of the compounds according to the invention have high selectivity and are therefore suitable for controlling unwanted vegetation in agricultural crops by the post-emergence method. The data of Tables B18 to B34 below illustrate, in an exemplary manner, the […] herbicidal action of the compounds according to the invention, the herbicidal activity being stated in percent.

Take `CCCn1nnnc1NC(=O)c1ccc(C(F)(F)F)c(C(=O)C2CC2)c1OC` [3-50]: the “Post-emergence action against PHBPU” value in test [1] amounted to 100. The “Post-emergence action against STEME” value in test [2] was determined as 100. In addition, the “Post-emergence action against ECHCG (herbicidal action in percent)” value in [3] is reported as 100%. For the same compound, the “Post-emergence action against VIOTR” value in test [4] was found to be 100. Moreover, the “Pre-emergence action against PHBPU” value in test [5] is given as 80%. For the same compound, the “Post-emergence action against ABUTH (herbicidal action in percent)” value in [6] worked out at 100%. For the same compound, the “Pre-emergence action against VERPE” value in test [7] came out at 100%. For the same compound, the “Post-emergence action against VERPE” value in test [8] was found to be 100. In addition, the “Post-emergence action against AMARE (herbicidal action in percent)” value in [9] stood at 100%. Besides, the “Pre-emergence action against STEME” value in [10] is 100%. Also, in test [11], the “Post-emergence action against CYPES (herbicidal action in percent)” value is 80%. Besides, in [12], the “SETVI (Table B8, pre-emergence herbicidal activity)” value came to 100%. The “Pre-emergence action against ALOMY (herbicidal activity in percent)” value in test [13] amounted to 100%. Also, in test [14], the “Pre-emergence action against MATIN” value was 100%. Also, the “Pre-emergence action against AMARE (herbicidal activity)” value in [15] came to 100%. Besides, the “Pre-emergence action against CYPES (herbicidal activity)” value in [16] stood at 90%. Further, the “Post-emergence action against SETVI (herbicidal action in percent)” value in [17] is recorded as 100%. Besides, the “Pre-emergence action against AVEFA (herbicidal activity)” value in test [18] was determined as 100%. In addition, the “Pre-emergence action against VIOTR” value in test [19] is listed as 100%. In test [20], the “Post-emergence action against MATIN (herbicidal action in percent)” value came to 100%. The “Pre-emergence action against ABUTH (herbicidal activity)” value in test [21] is 100%.

For the compound `CCn1nnnc1NC(=O)c1ccc(C)c(C(C)=O)c1Cl` [2-134], the “Post-emergence action against PHBPU” value in test [1] turned out to be 80. Further, the “Post-emergence action against STEME” value in [2] was 100. In test [3], the “Post-emergence action against ECHCG (herbicidal action in percent)” value worked out at 90%. In test [22], the “Pre-emergence action against ECHCG (herbicidal activity)” value stood at 80%. The “Post-emergence action against VIOTR” value in [4] is 100. Also, the “Pre-emergence action against VERPE” value in test [7] was 100%. Besides, the “Post-emergence action against VERPE” value in test [8] worked out at 90. Moreover, the “Post-emergence action against AMARE (herbicidal action in percent)” value in test [9] worked out at 90%. In addition, the “Pre-emergence action against STEME” value in test [10] is 90%. In addition, in [14], the “Pre-emergence action against MATIN” value is 90%. Besides, the “Pre-emergence action against AMARE (herbicidal activity)” value in [15] is listed as 100%. Moreover, the “Post-emergence action against SETVI (herbicidal action in percent)” value in test [17] worked out at 80%. Moreover, the “Post-emergence action against POLCO” value in [23] stood at 80. For the same compound, in [20], the “Post-emergence action against MATIN (herbicidal action in percent)” value is 90%.
